Reference: patent publication US7307101B2, “Use of 20-HETE synthesizing enzyme inhibitors as therapy for cerebral vascular disease” (MCW Research Foundation, Inc., priority 2000, dated 2007)

Experiments:
[1] = test system: rat 20-HETE synthesizing enzyme; assay: Synthesis of 20-HETE in rat renal microsomes ([14C]-AA); format: biochemical; details: 1.5 nM, lowest dose tested
Method: Microsomes were prepared by differential centrifugation as previously described. […] The reactions were terminated by acidification to pH 3.5 using 0.1 mol/L formic acid and extracted with ethyl acetate. Metabolites were separated using a 25 cm×2 mm i.d. (Supelco Inc., Bellefonte, Pa.) C18-reverse phase HPLC column and a linear elution gradient ranging from acetonitrile:water: acetic acid (50/50/0.1) to acetonitrile:acetic acid (100/0.1) over a 40 min period. The radioactive products were monitored using a radioactive flow detector (Model 120, Radiomatic Instrument Co., Tampa, Fla.).

[2] = HET0016 levels in plasma and brain; format: in vivo; details: rat; for concentration at 1 h: iv
Method: Measurement of HET0016 levels in plasma and brain. […] After a one hour equilibration period, the rats were anesthesized with pentobarbital and a blood sample was collected from the jugular vein. The rats were then sacrificed and the brain was removed, weighed and homogenized in 3 volumes of 0.9% NaCl solution using a Physcotron homogenizer (Nition-Ikakikai, Chiba, Japan). […] The samples were mixed with 1 ml of acetonitrile, centrifuged and 20 μl of the clear supernatant was injected into the LC/MS. The samples were separated on a 200×4.6 mm Capcellpak UG 120 ODS column (Shiseido Corp., Tokyo, Japan) and eluted with acetonitrile:water (72/28). Peaks were monitored using a Sciex API 3000 mass spectrometer (Perkin Elmer Sciex, Ontario, Canada) tuned to detect the precursor to product transitions specific for each analyte.

[3] = test system: EET formation in rat renal microsomes; assay: EET formation in rat renal microsomes ([3H]-AA, Example 3); format: biochemical; details: highest concentration studied, 1,000 ng/ml or 5 μM
Method: All procedure was carried out at 4° C. Renal cortex was pooled from twenty male SHR rats (6 weeks of age). They were homogenized extensively in lysis buffer (20 mM HEPES, pH 7.4, 1 mM EDTA, 100 μM p-(amidinophenyl)metanesulfonyl fluoride and 250 mM sucrose), and centrifuged at 16,000×g for 10 min. Supernatant was further centrifuged at 16,000×g for 30 min. Soluble fraction was collected and centrifuged at 200,000×g for 30 min. The resulting pellet was suspended in 50 mM MOPS buffer.
The reaction was terminated by adding formic acid and acetonitrile to a final concentration of 1% and 50%, respectively.

canine neutrophils = assay: Formation of 20-HETE by canine neutrophils; format: cell-based; details: Canis lupus familiaris, Neutrophil, read-out: IC50, formation of 20-HETE by canine neutrophils; 2×10^7 cells in dog CSF, 2 hours, n=4
Method: Experiments were performed to determine the cell type in canine blood responsible for the formation of 20-HETE. Experiments were performed using 4 male Beagle dogs. The dogs were anesthetized with sodium pentobarbital (30 mg/kg, i.v.). Venous blood sample was drawn and immediately mixed with 1:9 volume of trisodium citrate (3.8%) as an anticoagulant. Neutrophils were prepared to 98% purity using a percoll gradient technique. CSF was drawn from the Cistema Magna by using a 20 gauge needle. Only clear CSF sample without blood was used for the present experiment. The CSF was oxygenated with mixed gas (95% O2, 5% CO2) for 30 min. Neutrophils were suspended in the oxygenated CSF and cell numbers were adjusted to 2×10^6, 6.3×10^6, and 2×10^7. Whole blood (20 μl), red blood cells (20 μl) or neutrophils were incubated in the oxygenated CSF (180 μl) including 1 mM NADPH and [^3H]-AA at 37° C. for 2 hrs. The reaction was terminated by the addition of formic acid. One hundred percent acetonitrile (200 μl) was added to the reaction buffer to adjust final concentration to 50% for HPLC separation. […] The labeled products formed were monitored using a radioactive flow detector (raytest GmbH, Straubenhardt, Germany).
The reactions were terminated by addition of formic acid. […] The labeled metabolites were monitored using a radioactive flow detector ramona 93 (raytest GmbH, Straubenhardt, Germany).

PGH1 synthase = biological target: T1, PGH1 synthase (Ovis aries, UniProt P05979); assay: COX activity (conversion of AA to PGE2); format: biochemical, ram; details: 10^−6 M
T1 construct: the purified enzyme from ram seminal vesicles PGH1 synthase; purchased Cayman Chemical Co., Ann Arbor, Mich; host or cells: ram seminal vesicles (tissue-purified)
T1 sequence (P05979 25-600): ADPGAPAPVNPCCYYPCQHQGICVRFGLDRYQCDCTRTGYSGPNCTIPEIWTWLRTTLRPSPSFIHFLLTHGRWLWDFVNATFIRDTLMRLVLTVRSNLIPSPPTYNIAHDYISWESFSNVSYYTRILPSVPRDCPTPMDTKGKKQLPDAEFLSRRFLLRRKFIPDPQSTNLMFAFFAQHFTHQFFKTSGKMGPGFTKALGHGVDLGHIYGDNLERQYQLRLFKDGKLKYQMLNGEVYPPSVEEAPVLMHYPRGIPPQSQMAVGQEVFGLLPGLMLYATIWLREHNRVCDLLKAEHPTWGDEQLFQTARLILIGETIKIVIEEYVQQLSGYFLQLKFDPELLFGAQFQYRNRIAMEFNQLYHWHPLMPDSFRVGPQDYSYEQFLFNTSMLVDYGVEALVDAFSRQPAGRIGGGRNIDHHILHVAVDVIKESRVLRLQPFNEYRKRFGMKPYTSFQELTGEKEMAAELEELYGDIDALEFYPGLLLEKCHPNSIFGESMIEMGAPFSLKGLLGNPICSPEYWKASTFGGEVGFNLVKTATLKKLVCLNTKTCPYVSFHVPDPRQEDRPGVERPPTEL
Method: Reaction mixtures were incubated at 37° C. for 2 min before the addition of AA and for 2 min thereafter. All samples were run in duplicate. Amounts of PGE2 were determined by EIA after 100-400 times dilution with Tris buffer.

## CCCCc1ccc(N=CNO)c(C)c1 [HET0016, N-hydroxy-N′-(4-butyl-2-methylphenyl)-formamidine]
[1]
  inhibition of rat 20-HETE synthesizing enzymes: about 20%
[2]; brain, 1 hr after i.v. 10 mg/kg
  concentration at 1 h: 7.2 µM
[2]; brain, 1 hr after i.v. 10 mg/kg, n=3
  concentration at 1 h: 1490 ng/g
[2]; plasma, 1 hr after i.v. 10 mg/kg, n=3
  concentration at 1 h: 570 ± 90 ng/mL
[2]; 1 hr after i.v. 10 mg/kg
  HET0016 level in plasma (molar): 2.8 µM
[2]; plasma, one hour after i.v. 10 mg/kg body weight
  concentration at 1 h: 2.8 µM
[3]
  EET formation: did not inhibit
Canine neutrophils
  IC50: 10.2 ± 1.3 nM
PGH1 synthase
  inhibition at 1 µM: 20%
